pIC50: −log10 of the molar value.
Legend:
[1] = target: T1, HCV polymerase (NS5B) type 1a (Hepatitis C virus genotype 1a, UniProt P26664); assay: Assay of enzyme (HCV polymerase) inhibitory activity, type 1a enzyme; type: biochemical, HCV type 1a (cloned from the blood of patients); settings: HCV polymerase inhibitory activity IC50, 1a, type 1a enzyme
T1 construct: made in house; host or cells: Escherichia coli (by the 'similar method' of the 1b enzyme)
In short: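 Reactions ran 60 min at 25° C in 20 mM Tris-HCl pH 7.5, 5 mM MgCl2, 50 mM NaCl, holding genotype 1a NS5B (1.5 μg/ml, Δ47 C-terminus, 6His), substrate RNA 5 μg/ml, UTP 2 μM with tritiated UTP and other NTPs 50 μM. IC50 derived from incorporated radiolabel in filter-trapped RNA relative to uninhibited reaction.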

[2] = target: T2, HCV polymerase (NS5B) type 1b (Hepatitis C virus genotype 1b, UniProt P26663); assay: Assay of enzyme (HCV polymerase) inhibitory activity, type 1b enzyme; type: biochemical, HCV BK strain (type 1b); settings: HCV polymerase inhibitory activity IC50, 1b, type 1b enzyme
T2 construct: a region encoding NS5B (J Virol 1991 March, 65(3), 1105-13, 544 amino acids after deletion of 47 amino acids on the C-terminal); 6xHis (C); made in house; host or cells: Escherichia coli
In short: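 IC50 derived from [3H]UTP incorporation into TCA-insoluble RNA, compared with and without test compound. Reaction (25 °C, 60 min, Tris pH 7.5, 5 mM MgCl2): E. coli-expressed 1b NS5B Δ47 with His tag at 0.5 μg/ml, 5 μg/ml run-off substrate RNA, ATP/GTP/CTP 50 μM, UTP 2 μM.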

| SMILES | pIC50 [1] | pIC50 [2] |
| --- | --- | --- |
| O=C(NCc1ccc(OC(F)(F)F)cc1)[C@H]1CN(c2nc3nc(Cl)nc(Cl)c3s2)CCN1S(=O)(=O)c1ccc(OC(F)(F)F)cc1 [Example 800, (R)-4-(5,7-dichloro-thiazolo[4,5-d]pyrimidin-2-yl)-1-(4-trifluoromethoxy-benzenesulfonyl)-piperazine-2-carboxylic acid 4-trifluoromethoxy-benzylamide] | > 7.00 | > 7.00 |
| O=C(NCc1ccc(OC(F)(F)F)cc1)[C@H]1CN(c2nc3ncncc3s2)CCN1S(=O)(=O)c1ccc(OC(F)(F)F)cc1 [Example 801, (R)-4-thiazolo[4,5-d]pyrimidin-2-yl-1-(4-trifluoromethoxy-benzenesulfonyl)-piperazine-2-carboxylic acid 4-trifluoromethoxy-benzylamide] | > 7.00 | > 7.00 |
| O=C(NCc1ccc(OC(F)(F)F)cc1)[C@H]1CN(c2nc3nc(Cl)ncc3s2)CCN1S(=O)(=O)c1ccc(OC(F)(F)F)cc1 [Example 802, (R)-4-(5-chloro-thiazolo[4,5-d]pyrimidin-2-yl)-1-(4-trifluoromethoxy-benzenesulfonyl)-piperazine-2-carboxylic acid 4-trifluoromethoxy-benzylamide] | > 7.00 | > 7.00 |
| O=C(NCc1ccc(OC(F)(F)F)cc1)[C@H]1CN(c2nc3c(=O)[nH][nH]c(=O)c3s2)CCN1S(=O)(=O)c1ccc(OC(F)(F)F)cc1 [Example 803, (R)-4-(4,7-dioxo-4,5,6,7-tetrahydro-thiazolo[4,5-d]pyridazin-2-yl)-1-(4-trifluoromethoxy-benzenesulfonyl)-piperazine-2-carboxylic acid 4-trifluoromethoxy-benzylamide] | > 7.00 | > 7.00 |
| O=C(NCC12CC3CC(CC(C3)C1)C2)[C@H]1CN(c2cnc3cncnc3n2)CCN1S(=O)(=O)c1ccc(OC(F)(F)F)cc1 [Example 804, (R)-4-pteridin-7-yl-1-(4-trifluoromethoxy-benzenesulfonyl)-piperazine-2-carboxylic acid (adamantan-1-ylmethyl)-amide] | < 6.00 | < 6.00 |
| O=C(NCc1ccc(OC(F)(F)F)cc1)[C@H]1CN(c2nc3cn[nH]c(=O)c3s2)CCN1S(=O)(=O)c1ccc(OC(F)(F)F)cc1 [Example 805, (R)-4-(7-oxo-6,7-dihydrothiazolo[4,5-d]pyridazin-2-yl)-1-(4-trifluoromethoxy-benzenesulfonyl)-piperazine-2-carboxylic acid 4-trifluoromethoxy-benzylamide] | > 7.00 | > 7.00 |
| O=C(O)c1cncc2ncc(N3CCN(S(=O)(=O)c4ccc(OC(F)(F)F)cc4)[C@@H](C(=O)NCc4ccc(OC(F)(F)F)cc4)C3)nc12 [Example 806, 2-[(R)-4-(4-trifluoromethoxy-benzenesulfonyl)-3-(4-trifluoromethoxy-benzylcarbamoyl)-piperazin-1-yl]-pyrido[3,4-b]pyrazine-8-carboxylic acid] | > 7.00 | > 7.00 |
| NC(=O)c1cncc2ncc(N3CCN(S(=O)(=O)c4ccc(OC(F)(F)F)cc4)[C@@H](C(=O)NCc4ccc(OC(F)(F)F)cc4)C3)nc12 [Example 807, 2-[(R)-4-(4-trifluoromethoxy-benzenesulfonyl)-3-(4-trifluoromethoxy-benzylcarbamoyl)-piperazin-1-yl]-pyrido[3,4-b]pyrazine-8-carboxylic acid amide] | > 7.00 | > 7.00 |
| O=C(O)CCc1cncc2ncc(N3CCN(S(=O)(=O)c4ccc(OC(F)(F)F)cc4)[C@@H](C(=O)NCc4ccc(OC(F)(F)F)cc4)C3)nc12 [Example 808, 3-{2-[(R)-4-(4-trifluoromethoxy-benzenesulfonyl)-3-(4-trifluoromethoxy-benzylcarbamoyl)-piperazin-1-yl]-pyrido[3,4-b]pyrazin-8-yl}-propionic acid] | > 7.00 | > 7.00 |
| Cc1nc(N2CCN(S(=O)(=O)c3ccc(OC(F)(F)F)cc3)[C@@H](C(=O)NCc3ccc(OC(F)(F)F)cc3)C2)cnc1C(=O)O [Example 809, (R)-6′-methyl-4-(4-trifluoromethoxy-benzenesulfonyl)-3-(4-trifluoromethoxy-benzylcarbamoyl)-3,4,5,6-tetrahydro-2H-[1,2′]bipyrazinyl-5′-carboxylic acid] | > 7.00 | > 7.00 |
| NC(=O)CCc1cncc2ncc(N3CCN(S(=O)(=O)c4ccc(OC(F)(F)F)cc4)[C@@H](C(=O)NCc4ccc(OC(F)(F)F)cc4)C3)nc12 [Example 810, (R)-4-[8-(2-carbamoyl-ethyl)-pyrido[3,4-b]pyrazin-2-yl]-1-(4-trifluoromethoxy-benzenesulfonyl)-piperazine-2-carboxylic acid 4-trifluoromethoxy-benzylamide] | > 7.00 | > 7.00 |
| O=C(NCCCc1ccccc1)[C@H]1CN(c2cnc3cncnc3n2)CCN1S(=O)(=O)c1ccc(OC(F)(F)F)cc1 [Example 811, (R)-4-pteridin-7-yl-1-(4-trifluoromethoxy-benzenesulfonyl)-piperazine-2-carboxylic acid (3-phenyl-propyl)-amide] | 6.00 to 7.00 | 6.00 to 7.00 |
| CCCc1ccc(CNC(=O)[C@H]2CN(c3nc4cn[nH]c(=O)c4s3)CCN2S(=O)(=O)c2ccc(CC)cc2)cc1 [Example 812, (R)-1-(4-ethyl-benzenesulfonyl)-4-(7-oxo-6,7-dihydro-thiazolo[4,5-d]pyridazin-2-yl)-piperazine-2-carboxylic acid 4-propyl-benzylamide] | > 7.00 | > 7.00 |
| CCCc1ccc(CNC(=O)[C@H]2CN(c3cnc4cncc(Br)c4n3)CCN2S(=O)(=O)c2ccc(CC)cc2)cc1 [Example 813, (R)-4-(8-bromo-pyrido[3,4-b]pyrazin-2-yl)-1-(4-ethyl-benzenesulfonyl)-piperazine-2-carboxylic acid 4-propyl-benzylamide] | > 7.00 | > 7.00 |
| CCCc1ccc(CNC(=O)[C@H]2CN(c3cnc4c(C(=O)O)cccc4n3)CCN2S(=O)(=O)c2ccc(CC)cc2)cc1 [Example 814, 2-[(R)-4-(4-ethyl-benzenesulfonyl)-3-(4-propyl-benzylcarbamoyl)-piperazin-1-yl]-quinoxaline-5-carboxylic acid] | > 7.00 | > 7.00 |
| CCCc1ccc(CNC(=O)[C@H]2CN(c3cnc4cncc(C(=O)O)c4n3)CCN2S(=O)(=O)c2ccc(CC)cc2)cc1 [Example 815, 2-[(R)-4-(4-ethyl-benzenesulfonyl)-3-(4-propyl-benzylcarbamoyl)-piperazin-1-yl]-pyrido[3,4-b]pyrazine-8-carboxylic acid] | > 7.00 | > 7.00 |
| CCCc1ccc(CNC(=O)[C@H]2CN(c3cnc4cccc(C(=O)O)c4n3)CCN2S(=O)(=O)c2ccc(CC)cc2)cc1 [Example 816, 3-[(R)-4-(4-ethyl-benzenesulfonyl)-3-(4-propyl-benzylcarbamoyl)-piperazin-1-yl]-quinoxaline-5-carboxylic acid] | > 7.00 | > 7.00 |
| CCCc1ccc(CNC(=O)[C@H]2CN(c3cnc4c(C(=O)O)cccc4n3)CCN2S(=O)(=O)c2ccc(OC(F)(F)F)cc2)cc1 [Example 817, 2-[(R)-3-(4-propyl-benzylcarbamoyl)-4-(4-trifluoromethoxy-benzenesulfonyl)-piperazin-1-yl]-quinoxaline-5-carboxylic acid] | > 7.00 | > 7.00 |
| CCCc1ccc(CNC(=O)[C@H]2CN(c3nc4c(C(=O)O)cccc4s3)CCN2S(=O)(=O)c2ccc(CC)cc2)cc1 [Example 818, 2-[(R)-4-(4-ethyl-benzenesulfonyl)-3-(4-propyl-benzylcarbamoyl)-piperazin-1-yl]-benzothiazole-4-carboxylic acid] | > 7.00 | > 7.00 |
| CCCc1ccc(CNC(=O)[C@H]2CN(c3nc4cn[nH]c(=O)c4s3)CCN2S(=O)(=O)c2ccc(OC(F)(F)F)cc2)cc1 [Example 819, (R)-4-(7-oxo-6,7-dihydro-thiazolo[4,5-d]pyridazin-2-yl)-1-(4-trifluoromethoxy-benzenesulfonyl)-piperazine-2-carboxylic acid 4-propyl-benzylamide] | > 7.00 | > 7.00 |
| CCCc1ccc(CNC(=O)[C@H]2CN(c3nc4cn[nH]c(=O)c4s3)CCN2S(=O)(=O)c2ccc(C(F)(F)F)cc2)cc1 [Example 820, (R)-4-(7-oxo-6,7-dihydro-thiazolo[4,5-d]pyridazin-2-yl)-1-(4-trifluoromethyl-benzenesulfonyl)-piperazine-2-carboxylic acid 4-propyl-benzylamide] | > 7.00 | > 7.00 |
| CCC(F)(F)c1ccc(CNC(=O)[C@H]2CN(c3nc4cn[nH]c(=O)c4s3)CCN2S(=O)(=O)c2ccc(OC(F)(F)F)cc2)cc1 [Example 821, (R)-4-(7-oxo-6,7-dihydro-thiazolo[4,5-d]pyridazin-2-yl)-1-(4-trifluoromethoxy-benzenesulfonyl)-piperazine-2-carboxylic acid 4-(1,1-difluoro-propyl)-benzylamide] | > 7.00 | > 7.00 |
| CCCc1ccc(CNC(=O)[C@H]2CN(c3ccc(C(=O)O)c(C)n3)CCN2S(=O)(=O)c2ccc(OC(F)(F)F)cc2)cc1 [Example 822, 2-methyl-6-[(R)-3-(4-propyl-benzylcarbamoyl)-4-(4-trifluoromethoxy-benzenesulfonyl)-piperazin-1-yl]-nicotinic acid] | > 7.00 | > 7.00 |

— US8017612B2, “Piperazine compound and use thereof as a HCV polymerase inhibitor” (priority 2006, dated 2011)
